Measured values from PubChem BioAssay (NCI).
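Cells were grown in 96-well plates and exposed to each compound for 48 hours at five concentrations; endpoints were interpolated linearly between bracketing concentrations, or set to the highest concentration if not reached. TGI: total growth inhibition.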

Tests used:
Assay in all cases: inhibition of tumour cell growth, NCI panel, 48 h
[1] = tested on: 786-0 renal
[2] = tested on: A498 renal
[3] = tested on: A549 NSCLC
[4] = tested on: ACHN renal
[5] = tested on: BT-549 breast
[6] = tested on: CAKI-1 renal
[7] = tested on: CCRF-CEM leukemia
[8] = tested on: COLO 205 colon
[9] = tested on: DU-145 prostate
[10] = tested on: EKVX NSCLC
[11] = tested on: HCC-2998 colon
[12] = tested on: HCT-116 colon
[13] = tested on: HCT-15 colon
[14] = tested on: HL-60(TB) leukemia
[15] = tested on: HOP-62 NSCLC
[16] = tested on: HOP-92 NSCLC
[17] = tested on: HS 578T breast
[18] = tested on: HT29 colon
[19] = tested on: IGROV1 ovarian
[20] = tested on: K-562 leukemia
[21] = tested on: KM12 colon
[22] = tested on: M14 melanoma
[23] = tested on: MCF7 breast
[24] = tested on: MDA-MB-231 breast
[25] = tested on: MDA-MB-435
[26] = tested on: MOLT-4 leukemia
[27] = tested on: NCI-H226 lung
[28] = tested on: NCI-H23 lung
[29] = tested on: NCI-H460 lung
[30] = tested on: NCI-H522 lung
[31] = tested on: NCI/ADR-RES ovarian
[32] = tested on: OVCAR-3 ovarian
[33] = tested on: OVCAR-4 ovarian
[34] = tested on: OVCAR-5 ovarian
[35] = tested on: OVCAR-8 ovarian
[36] = tested on: PC-3 prostate
[37] = tested on: RPMI-8226 leukemia
[38] = tested on: RXF 393 renal
[39] = tested on: SF-268 CNS
[40] = tested on: SF-295 CNS
[41] = tested on: SF-539 CNS
[42] = tested on: SK-MEL-2 melanoma
[43] = tested on: SK-MEL-28 melanoma
[44] = tested on: SK-MEL-5 melanoma
[45] = tested on: SK-OV-3 ovarian
[46] = tested on: SN12C renal
[47] = tested on: SNB-19 CNS
[48] = tested on: SNB-75 CNS
[49] = tested on: SR leukemia
[50] = tested on: SW-620 colon
[51] = tested on: T-47D breast
[52] = tested on: TK-10 renal
[53] = tested on: U251 CNS
[54] = tested on: UACC-257 melanoma
[55] = tested on: UACC-62 melanoma
[56] = tested on: UO-31 renal

COc1ccc(CCCCl)c(C2=NCCc3ccccc32)c1
TGI [1]: > 100 µM
TGI [2]: > 100 µM
TGI [3]: > 100 µM
TGI [4]: > 100 µM
TGI [5]: > 100 µM
TGI [6]: > 100 µM
TGI [7]: > 100 µM
TGI [8]: 82.8 µM
TGI [9]: > 100 µM
TGI [10]: > 100 µM
TGI [11]: > 100 µM
TGI [12]: > 100 µM
TGI [13]: > 100 µM
TGI [14]: > 100 µM
TGI [15]: > 100 µM
TGI [16]: > 100 µM
TGI [17]: > 100 µM
TGI [18]: > 100 µM
TGI [19]: > 100 µM
TGI [20]: > 100 µM
TGI [21]: > 100 µM
TGI [22]: > 100 µM
TGI [23]: > 100 µM
TGI [24]: > 100 µM
TGI [25]: > 100 µM
TGI [26]: > 100 µM
TGI [27]: > 100 µM
TGI [28]: > 100 µM
TGI [29]: > 100 µM
TGI [30]: > 100 µM
TGI [31]: > 100 µM
TGI [32]: > 100 µM
TGI [33]: > 100 µM
TGI [34]: > 100 µM
TGI [35]: > 100 µM
TGI [36]: > 100 µM
TGI [37]: 21.7 µM
TGI [38]: > 100 µM
TGI [39]: > 100 µM
TGI [40]: > 100 µM
TGI [41]: > 100 µM
TGI [42]: > 100 µM
TGI [43]: > 100 µM
TGI [44]: 45 µM
TGI [45]: > 100 µM
TGI [46]: > 100 µM
TGI [47]: > 100 µM
TGI [48]: > 100 µM
TGI [49]: > 100 µM
TGI [50]: > 100 µM
TGI [51]: > 100 µM
TGI [52]: > 100 µM
TGI [53]: > 100 µM
TGI [54]: > 100 µM
TGI [55]: > 100 µM
TGI [56]: > 100 µM
